Test results: patent publication US20160184356A1, “ARSENIC-BASED TREATMENT OF CANCERS AND INFLAMMATORY DISORDERS” (STC.UNM, priority 2013, published 2016)
Where two headings read alike, the source gives them in different places.

How the values were obtained:
[1] = molecular target: T1, APTX (C2H2) zinc finger peptide (Homo sapiens, UniProt Q7Z2E3); format: binding
T1 construct: purchased Genemed Synthesis Inc. (San Antonio, Tex.); host or cells: chemical synthesis
T1 sequence (Q7Z2E3 330-356 limits assumed): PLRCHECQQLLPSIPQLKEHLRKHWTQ

[2] = molecular target: T2, PARP-1 (C3H1) zinc finger peptide (Homo sapiens, UniProt P09874, DEL32-46); format: binding
T2 construct: purchased Genemed Synthesis Inc. (San Antonio, Tex.); host or cells: chemical synthesis
T2 sequence (P09874 with tags, fused parts or gaps DEL32-46 limits assumed): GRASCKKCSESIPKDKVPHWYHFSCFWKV

[3] = molecular target: T3, XPA (C4) zinc finger peptide (Homo sapiens, UniProt P23025); format: binding
T3 construct: purchased Genemed Synthesis Inc. (San Antonio, Tex.); host or cells: chemical synthesis
T3 sequence (P23025 101-137 limits assumed): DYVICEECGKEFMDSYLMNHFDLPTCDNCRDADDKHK

[4] = molecular target: T1, APTX (C2H2) zinc finger peptide; format: binding; remark: listed apart in the source
[5] = molecular target: T2, PARP-1 (C3H1) zinc finger peptide; format: binding; remark: listed apart in the source
[6] = molecular target: T3, XPA (C4) zinc finger peptide; format: binding; remark: listed apart in the source
[7] = molecular target: T1, APTX (C2H2) zinc finger peptide; format: binding; remark: listed apart in the source
[8] = molecular target: T2, PARP-1 (C3H1) zinc finger peptide; format: binding; remark: listed apart in the source
[9] = molecular target: T3, XPA (C4) zinc finger peptide; format: binding; remark: listed apart in the source
[10] = molecular target: T1, APTX (C2H2) zinc finger peptide; format: binding; remark: listed apart in the source
[11] = molecular target: T2, PARP-1 (C3H1) zinc finger peptide; format: binding; remark: listed apart in the source
[12] = molecular target: T3, XPA (C4) zinc finger peptide; format: binding; remark: listed apart in the source
[13] = molecular target: T4, APTX protein (Homo sapiens, UniProt Q7Z2E3); format: cell-based
T4 construct: APTX, PARP-1, and XPA protein were immunoprecipitated from cell extracts using corresponding antibodies; endogenous in cells; host or cells: HaCaT human keratinocytes
T4 sequence (Q7Z2E3 whole entry): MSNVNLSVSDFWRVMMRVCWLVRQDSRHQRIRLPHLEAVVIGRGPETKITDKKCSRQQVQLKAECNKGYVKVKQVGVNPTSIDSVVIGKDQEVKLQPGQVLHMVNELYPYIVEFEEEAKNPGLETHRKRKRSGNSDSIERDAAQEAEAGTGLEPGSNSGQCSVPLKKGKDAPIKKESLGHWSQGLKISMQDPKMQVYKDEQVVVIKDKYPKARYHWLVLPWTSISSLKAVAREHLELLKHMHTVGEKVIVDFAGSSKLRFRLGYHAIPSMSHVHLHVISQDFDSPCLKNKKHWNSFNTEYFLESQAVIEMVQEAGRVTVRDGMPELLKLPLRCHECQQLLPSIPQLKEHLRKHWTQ

[14] = molecular target: T5, PARP-1 protein (Homo sapiens, UniProt P09874); format: cell-based
T5 construct: APTX, PARP-1, and XPA protein were immunoprecipitated from cell extracts using corresponding antibodies; endogenous in cells; host or cells: HaCaT human keratinocytes
T5 sequence (P09874 whole entry): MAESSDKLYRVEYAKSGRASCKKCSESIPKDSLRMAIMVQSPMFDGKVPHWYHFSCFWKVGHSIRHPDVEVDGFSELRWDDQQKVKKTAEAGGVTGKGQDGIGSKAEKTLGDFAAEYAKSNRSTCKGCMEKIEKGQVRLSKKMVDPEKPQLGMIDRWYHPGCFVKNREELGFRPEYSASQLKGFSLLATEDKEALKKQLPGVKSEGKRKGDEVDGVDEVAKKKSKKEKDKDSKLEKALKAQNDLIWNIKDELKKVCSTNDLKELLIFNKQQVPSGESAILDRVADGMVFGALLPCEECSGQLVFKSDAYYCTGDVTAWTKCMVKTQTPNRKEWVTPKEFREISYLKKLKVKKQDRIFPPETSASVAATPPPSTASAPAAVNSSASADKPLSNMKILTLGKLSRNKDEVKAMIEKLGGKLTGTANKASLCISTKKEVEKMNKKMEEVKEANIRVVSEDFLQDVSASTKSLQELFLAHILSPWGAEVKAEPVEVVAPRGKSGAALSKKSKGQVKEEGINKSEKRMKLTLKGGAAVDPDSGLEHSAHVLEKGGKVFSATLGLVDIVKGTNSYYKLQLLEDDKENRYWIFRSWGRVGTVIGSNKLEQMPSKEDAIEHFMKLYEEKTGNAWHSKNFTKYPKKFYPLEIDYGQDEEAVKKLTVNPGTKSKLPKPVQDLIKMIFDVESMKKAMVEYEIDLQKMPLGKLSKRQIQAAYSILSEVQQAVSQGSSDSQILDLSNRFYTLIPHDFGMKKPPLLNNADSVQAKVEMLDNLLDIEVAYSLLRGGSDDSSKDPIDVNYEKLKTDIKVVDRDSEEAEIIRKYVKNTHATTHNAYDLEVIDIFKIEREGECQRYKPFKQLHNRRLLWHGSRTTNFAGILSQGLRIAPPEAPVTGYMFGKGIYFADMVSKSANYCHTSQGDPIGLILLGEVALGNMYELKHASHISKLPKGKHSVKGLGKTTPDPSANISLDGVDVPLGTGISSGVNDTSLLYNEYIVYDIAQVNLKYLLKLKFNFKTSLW

[15] = molecular target: T6, XPA protein (Homo sapiens, UniProt P23025); format: cell-based
T6 construct: APTX, PARP-1, and XPA protein were immunoprecipitated from cell extracts using corresponding antibodies; endogenous in cells; host or cells: HaCaT human keratinocytes
T6 sequence (P23025 whole entry): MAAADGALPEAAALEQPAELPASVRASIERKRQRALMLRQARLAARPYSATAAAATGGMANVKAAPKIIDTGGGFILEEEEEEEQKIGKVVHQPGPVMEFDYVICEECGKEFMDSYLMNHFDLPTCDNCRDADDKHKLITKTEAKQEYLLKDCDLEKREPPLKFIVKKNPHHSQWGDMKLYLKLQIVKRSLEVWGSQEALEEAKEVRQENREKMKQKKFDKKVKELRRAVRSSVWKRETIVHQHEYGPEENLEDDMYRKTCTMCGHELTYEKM

[16] = molecular target: T7, PARP (Homo sapiens, UniProt P09874); set-up: host or cells: urothelial cells; settings: 1 µM; cited from earlier work
Target sequence in this assay (P09874 2-1014 limits assumed): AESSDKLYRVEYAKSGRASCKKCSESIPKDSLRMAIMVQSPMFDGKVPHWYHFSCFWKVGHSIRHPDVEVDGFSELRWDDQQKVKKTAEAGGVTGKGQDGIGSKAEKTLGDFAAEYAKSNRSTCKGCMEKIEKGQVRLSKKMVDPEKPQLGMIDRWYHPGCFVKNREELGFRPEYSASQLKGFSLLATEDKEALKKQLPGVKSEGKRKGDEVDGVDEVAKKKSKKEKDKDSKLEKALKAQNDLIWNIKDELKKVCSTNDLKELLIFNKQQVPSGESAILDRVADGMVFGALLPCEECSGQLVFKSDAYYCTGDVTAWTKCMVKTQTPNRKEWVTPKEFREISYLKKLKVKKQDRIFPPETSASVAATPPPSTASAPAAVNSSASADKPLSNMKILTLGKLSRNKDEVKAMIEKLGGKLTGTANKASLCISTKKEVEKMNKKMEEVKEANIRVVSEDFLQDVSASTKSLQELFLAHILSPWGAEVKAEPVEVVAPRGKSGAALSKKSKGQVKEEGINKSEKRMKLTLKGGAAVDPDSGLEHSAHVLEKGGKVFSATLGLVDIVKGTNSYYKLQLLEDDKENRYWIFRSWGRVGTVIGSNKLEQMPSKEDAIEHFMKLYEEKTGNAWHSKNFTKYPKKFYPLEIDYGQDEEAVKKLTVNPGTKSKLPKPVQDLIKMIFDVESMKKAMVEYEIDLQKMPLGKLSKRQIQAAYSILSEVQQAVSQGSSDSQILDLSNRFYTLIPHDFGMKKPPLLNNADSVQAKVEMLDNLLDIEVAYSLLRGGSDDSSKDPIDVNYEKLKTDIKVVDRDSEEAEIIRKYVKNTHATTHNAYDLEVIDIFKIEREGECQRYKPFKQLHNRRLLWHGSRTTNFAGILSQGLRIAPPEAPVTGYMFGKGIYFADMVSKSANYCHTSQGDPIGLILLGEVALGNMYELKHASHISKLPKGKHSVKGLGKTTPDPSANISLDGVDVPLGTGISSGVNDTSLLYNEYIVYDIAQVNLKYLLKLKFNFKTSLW

[17] = test system: C3H1 and C4 complexes; settings: cited from earlier work
[18] = test system: C2H2 complex; settings: cited from earlier work
[19] = molecular target: T7, PARP; set-up: host or cells: human keratinocytes; settings: cited from earlier work
Target sequence in this assay (P09874 2-1014): as the sequence (P09874 2-1014 limits assumed) above

Row | Molecule | cobalt binding (absorbance at 660 nm) after incubation with arsenical [1] | cobalt binding (absorbance at 660 nm) after incubation with arsenical [2] | cobalt binding (absorbance at 660 nm) after incubation with arsenical [3] | As—S bond formation (A270) [4] | As—S bond formation (A270) [5] | As—S bond formation (A270) [6] | binding to zinc finger peptide by MALDI-TOF mass spectrometry [7] | binding to zinc finger peptide by MALDI-TOF mass spectrometry [8] | binding to zinc finger peptide by MALDI-TOF mass spectrometry [9] | tertiary structure change (fluorescent intensity at 350 nm) [10] | tertiary structure change (fluorescent intensity at 350 nm) [11] | tertiary structure change (fluorescent intensity at 350 nm) [12] | zinc content in protein [13] | zinc content in protein [14] | zinc content in protein [15] | PARP activity inhibition [16] | stability of arsenite bound complex in kinetic studies [17] | stability of arsenite bound complex in kinetic studies [18] | PARP activity inhibition [19]
1 | C[As](O)O [MMA(III), monomethylarsonous acid] | concentration-dependent decrease in cobalt binding to all three peptides | concentration-dependent decrease in cobalt binding to all three peptides | concentration-dependent decrease in cobalt binding to all three peptides | A270 values increased for all three types of zinc fingers | A270 values increased for all three types of zinc fingers | A270 values increased for all three types of zinc fingers | bound to APTX zinc finger peptide | also bound to the PARP-1 zinc finger | bound to the XPA zinc finger | decreased in a concentration-dependent manner | alters the tertiary structure of all 3 conformations of zinc fingers | alters the tertiary structure of all 3 conformations of zinc fingers | caused zinc loss from all three configurations of zinc finger proteins | caused zinc loss from all three configurations of zinc finger proteins | caused zinc loss from all three configurations of zinc finger proteins | about 30% | – | – | –
2 | sodium arsenite | – | decreased subsequent cobalt binding in a concentration-dependent manner | decreased subsequent cobalt binding in a concentration-dependent manner | – | A270 values increased in a concentration-dependent manner | A270 values increased in a concentration-dependent manner | showed no binding to the APTX zinc finger | bound with PARP-1 and XPA zinc finger peptides | bound with PARP-1 and XPA zinc finger peptides | showed no effect | selectively disrupted the tertiary structure of C3H1 and C4 zinc fingers | selectively disrupted the tertiary structure of C3H1 and C4 zinc fingers | selectively displaced zinc from PARP-1 and XPA proteins | selectively displaced zinc from PARP-1 and XPA proteins | selectively displaced zinc from PARP-1 and XPA proteins | – | 155 min | 1.29 min | up to 90%
